The source of these data is patent US20120214821A1, “Lipidomic Biomarkers of Diabetes” (THE BROAD INSTITUTE, INC., priority 2011, published 2012).

The conditions of assay [1]: 20 non-diabetic individuals, after four doses of metformin 500 mg over two days; baseline 95 mg/dL; p=0.022. On the procedure:
(§1) Pharmacologic studies were performed as follows. […] After a washout period of 6 days, subjects received metformin 500 mg twice daily for two days in order to reduce hepatic gluconeogenesis, and then underwent a 75 g OGTT in the presence of metformin. […] From the first 164 subjects completing the protocol, 20 participants were selected who represented both high and low ends of the HOMA-IR range.
(§2) OGTT causes an acute rise in plasma glucose, which then triggers a rise in insulin.
(§3) After a washout period of 6 days, these 20 individuals were then administered four doses of metformin (500 mg) over two days. Although chronic metformin use decreases insulin resistance, its acute effect is to decrease hepatic glucose output, and as a result, lower plasma insulin (10).

In a further assay the test system is plasma TAGs. The settings on record: 20 non-diabetic individuals, after four doses of metformin 500 mg over two days (FIG. 6C). The procedure:
as §1, §2, §3

Regarding `CN(C)C(=N)N=C(N)N` [metformin], the mean plasma glucose in assay [1] is listed as 86 mg/dL. The “TAG response (change of plasma TAGs by carbon number and double bond content)” value with plasma TAGs is “an increase in TAGs of lower carbon number and double bond content, and a decrease in TAGs of higher carbon number and double bond content”.
